US20190322676A1, “CERAMIDE GALACTOSYLTRANSFERASE INHIBITORS FOR THE TREATMENT OF DISEASE” (BioMarin Pharmaceutical Inc., priority 2016, published 2019)
Structures can show the parent of a compound that is named as a salt.

Columns and labels:
Format in all cases: biochemical
[1] = target: T1, human CGT (ceramide galactosyltransferase), CHO/CGT lysate (Homo sapiens, UniProt Q16880); experiment: CGT enzyme assay, LC-MS/MS readout (Table 1 ranges without asterisk); conditions: LC-MS/MS method (range without asterisk)
T1 construct: Full-length human CGT cDNA was cloned into the BamH1/Xho1 site of pcDNA3.1 (+); expressed in transfected cells; host or cells: Chinese hamster ovary (CHO) cells; lysate prepared with M-PER
T1 sequence (Q16880 21-541): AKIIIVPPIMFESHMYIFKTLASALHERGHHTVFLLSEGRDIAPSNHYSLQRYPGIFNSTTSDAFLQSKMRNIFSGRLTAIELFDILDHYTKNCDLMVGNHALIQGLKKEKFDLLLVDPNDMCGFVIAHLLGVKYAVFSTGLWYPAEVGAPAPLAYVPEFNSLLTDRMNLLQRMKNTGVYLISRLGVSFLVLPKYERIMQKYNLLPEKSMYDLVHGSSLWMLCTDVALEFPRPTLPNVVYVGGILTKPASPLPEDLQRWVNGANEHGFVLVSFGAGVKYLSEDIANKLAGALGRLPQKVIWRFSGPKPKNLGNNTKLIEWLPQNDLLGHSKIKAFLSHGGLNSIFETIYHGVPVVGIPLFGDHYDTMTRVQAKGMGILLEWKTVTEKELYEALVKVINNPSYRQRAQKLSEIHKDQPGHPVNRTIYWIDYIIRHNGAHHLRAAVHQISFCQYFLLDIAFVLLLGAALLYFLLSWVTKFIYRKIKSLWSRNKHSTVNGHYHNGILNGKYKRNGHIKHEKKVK
Experimental: Full-length human CGT cDNA was cloned into the BamH1/Xho1 site of pcDNA3.1 (+) mammalian expression vector (V90-20, Invitrogen, Carlsbad, Calif.) and the plasmid was transfected into Chinese hamster ovary (CHO) cells. Lysate was prepared using M-PER (Mammalian Protein Extraction Reagent, ThermoFisher Scientific, Grand Island, N.Y.) in the presence of a protease inhibitor cocktail (P8340, Sigma, Saint Louis, Mo.). Each 100 mm dish (100% confluent, approximately 1×10^7 cells) was lysed with 250 μL of M-PER containing protease inhibitors. Protein concentration was determined using a Pierce BCA protein assay kit (ThermoFisher Scientific). Four micrograms of CHO/CGT lysate was incubated with various concentrations of a compound (0.001 μM-50 μM) in 10 mM HEPES (pH 7.2) containing 35 μM dioleoylphosphatidylcholine, 5 mM MgCl2, 5 mM MnCl2, 1% BSA, 15 mM KCl, 1 mM EGTA, 8 mM CHAPS, 10 μM C6-NBD-dihydro-ceramide and 17.5 μM UDP-galactose in a final reaction volume of 20 μL at 37° C. for 1 hour. The final concentration of DMSO was 0.5% in both compound-treated and mock-treated samples. Tween 80 (0.01%) was optionally added to the reaction mixture to help solubilize the compounds. Each individual reaction was diluted with 80 μL of methanol:acetronitrile (1:3) containing 5 μM N-docdecanoyl-NBD-galactosylceramide (internal standard) to stop the reaction. 200 μL H2O:acetonitile (1:1) was added to precipitate the protein. After sufficient mixing, the plates were centrifuged at 2469 g for 38 minutes, 200 μL of supernatant was transferred to a LC/MS 96-deep well plate and a second spin was performed at 2469 g for 10 minutes. The final supernatant was injected in triplicate for RapidFire/MS/MS analysis.
An alternative LC-MS/MS based method was also used. For the LC-MS/MS readout, the CGT assay was identical to the one described above except for the following: […] was used as the CGT enzyme source, C12:0 (2R—OH) ceramide was used as the ceramide substrate and 0.3 μM Cl2 ceramide was used as the internal standard. Tween 80 was not present in the reaction mixture. The final supernatant was injected for LC-MS/MS analysis.
Quantitative analysis using the LC-MS/MS method: The quantitative analysis of C12:0 (2R—OH) ceramide and C12:0 (2R—OH) galactosylceramide by LC-MS/MS was performed on a Shimadzu ultra-fast liquid chromatography (Shimadzu, Japan) coupled with API 4000 mass spectrometer (Applied Biosystems, Concord, Ontario, Canada). Analyst 1.5 software packages (Applied Biosystems) were used to control the LC-MS/MS system, as well as for data acquisition and processing. 10 μL of sample was loaded onto a Luna C18 column (50 mm×2.0 mm, I.D. 3 μm, 100A) (Phenomenex, USA) for chromatographic separation. Mobile phase A consisted of HPLC grade water with 0.1% formic acid (v/v) and mobile phase B consisted of acetonitrile supplemented with 0.1% formic acid (v/v). The separation was achieved using the following gradient program at a flow rate of 0.8 mL/min: the initial mobile phase was 70% B, which was increased in a linear fashion to 95% B in 1.50 min, and then maintained at 95% B until 3.50 min. The mobile phase was then reset to 70% B within 0.01 min, and maintained until 4.50 min. The total run time was 4.50 min. The MS/MS detection was performed in ESI positive mode. The mass transition selected for quantification was m/z 498.5-264.3 for C12:0 (2R—OH) ceramide under the collision energy of 38.8 V, and the mass transition of C12:0 (2R—OH) galactosylceramide was m/z 660.6-264.5 under the collision energy of 51 V. The mass transition of Cl2 ceramide which was used as internal standard was m/z 482.4-264.3 under the collision energy of 33V. Compound IC50 values were calculated using a protocol identical to the one described for the RapidFire method (see Table 1, where data ranges without an asterix correspond to analysis using the LC-MS/MS method).
Using the above CGT enzyme and CGT cellular assays, the compounds of Table 1 were tested. […]

[2] = target: T1, human CGT (ceramide galactosyltransferase), CHO/CGT lysate; experiment: CGT enzyme assay, RapidFire/MS/MS readout (Table 1 ranges with one asterisk *); conditions: RapidFire method (range with one asterisk *)
How it was run: (§1)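 Lysate (4 μg) of CHO cells transfected with full-length human CGT incubated 1 h at 37 °C with compound (0.001–50 μM) in pH 7.2 HEPES buffer with 10 μM C6-NBD-dihydro-ceramide, 17.5 μM UDP-galactose, Mg2+/Mn2+, CHAPS, BSA, 0.5% DMSO; ** set also contained 0.01% Tween 80. Product quantified by RapidFire/MS/MS, normalized to internal standard; IC50 from sigmoidal variable-slope fits.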

[3] = target: T1, human CGT (ceramide galactosyltransferase), CHO/CGT lysate; experiment: CGT enzyme assay, RapidFire/MS/MS readout with 0.01% Tween added (Table 1 ranges with two asterisks **)
How it was run: as §1

[4] = CGT enzyme assay, RapidFire/MS/MS method with 0.01% Tween added (range with two asterisks **)
[5] = CGT enzymatic assay, range with two asterisks (**): RapidFire/MS/MS method with 0.01% Tween added

IC50 [3, 5] [µM]	Compound	IC50 [1] [µM]	IC50 [2] [µM]	IC50 [3, 4] [µM]
	CC(C)Oc1ccc2cc(S(=O)(=O)N[C@@H](C(=O)N3C4CCC3CC(N)C4)C(F)(F)c3ccc(Br)cc3)ccc2c1 (stereo partly drawn) [Compound 1-2, N-((2S)-3-(3-amino-8-azabicyclo[3.2.1]octan-8-yl)-1-(4-bromophenyl)-1,1-difluoro-3-oxopropan-2-yl)-6-isopropoxynaphthalene-2-sulfonamide]	10 to 30		
	CCC(CC)COc1ccc(S(=O)(=O)N[C@H](C(=O)N2C3CCC2CC(N)C3)C(F)(F)c2ccc(Br)cc2)cc1 (stereo partly drawn) [Compound 2-1, N-((2R)-3-(3-amino-8-azabicyclo[3.2.1]octan-8-yl)-1-(4-bromophenyl)-1,1-difluoro-3-oxopropan-2-yl)-4-(2-ethylbutoxy)benzenesulfonamide]	1 to 10		
	CCC(CC)COc1ccc(S(=O)(=O)N[C@@H](C(=O)N2C3CCC2CC(N)C3)C(F)(F)c2ccc(Br)cc2)cc1 (stereo partly drawn) [Compound 2-2, N-((2S)-3-(3-amino-8-azabicyclo[3.2.1]octan-8-yl)-1-(4-bromophenyl)-1,1-difluoro-3-oxopropan-2-yl)-4-(2-ethylbutoxy)benzenesulfonamide]	30 to 100		
	NC1CC2CCC(C1)N2C(=O)C(NS(=O)(=O)c1ccc(-c2ccc(F)cc2)cc1)C(F)(F)c1ccc(Br)cc1 (centres unmarked) [Compound 3, N-(3-(3-amino-8-azabicyclo[3.2.1]octan-8-yl)-1-(4-bromophenyl)-1,1-difluoro-3-oxopropan-2-yl)-4′-fluoro-[1,1′-biphenyl]-4-sulfonamide]	10 to 30		
	NC1CC2CCC(C1)N2C(=O)[C@@H](NS(=O)(=O)c1ccc2cc(OC3CCCC3)ccc2c1)C(F)(F)c1ccc(-c2ccc(Cl)cc2)cc1 (stereo partly drawn) [Compound 48-1, N-((2R)-3-(3-amino-8-azabicyclo[3.2.1]octan-8-yl)-1-(4′-chloro-[1,1′-biphenyl]-4-yl)-1,1-difluoro-3-oxopropan-2-yl)-6-(cyclopentyloxy)naphthalene-2-sulfonamide trifluoroacetate]		< 1	< 1
	NC1CC2CCC(C1)N2C(=O)[C@H](NS(=O)(=O)c1ccc2cc(OC3CCCC3)ccc2c1)C(F)(F)c1ccc(-c2ccc(Cl)cc2)cc1 (stereo partly drawn) [Compound 48-2, N-((2S)-3-(3-amino-8-azabicyclo[3.2.1]octan-8-yl)-1-(4′-chloro-[1,1′-biphenyl]-4-yl)-1,1-difluoro-3-oxopropan-2-yl)-6-(cyclopentyloxy)naphthalene-2-sulfonamide trifluoroacetate]		1 to 10	1 to 10
	NC1CCN(C(=O)[C@@H](NS(=O)(=O)c2ccc3cc(OC4CCCC4)ccc3c2)C(F)(F)c2ccc(-c3ccc(Cl)cc3)cc2)CC1 [Compound 91-1, (R)—N-(3-(4-aminopiperidin-1-yl)-1-(4′-chloro-[1,1′-biphenyl]-4-yl)-1,1-difluoro-3-oxopropan-2-yl)-6-(cyclopentyloxy)naphthalene-2-sulfonamide trifluoroacetate]		< 1	< 1
	NC1CCN(C(=O)[C@H](NS(=O)(=O)c2ccc3cc(OC4CCCC4)ccc3c2)C(F)(F)c2ccc(-c3ccc(Cl)cc3)cc2)CC1 [Compound 91-2, (S)—N-(3-(4-aminopiperidin-1-yl)-1-(4′-chloro-[1,1′-biphenyl]-4-yl)-1,1-difluoro-3-oxopropan-2-yl)-6-(cyclopentyloxy)naphthalene-2-sulfonamide trifluoroacetate]		1 to 10	1 to 10
	NC1CCN(C(=O)[C@@H](NS(=O)(=O)c2ccc(OCC3CCCCC3)cc2)C(F)(F)c2ccc(-c3ccc(Cl)cc3)cc2)CC1 [Compound 96-1, (R)—N-(3-(4-aminopiperidin-1-yl)-1-(4′-chloro-[1,1′-biphenyl]-4-yl)-1,1-difluoro-3-oxopropan-2-yl)-4-(cyclohexylmethoxy)benzenesulfonamide trifluoroacetate]		1 to 10	1 to 10
	NC1CCN(C(=O)[C@H](NS(=O)(=O)c2ccc(OCC3CCCCC3)cc2)C(F)(F)c2ccc(-c3ccc(Cl)cc3)cc2)CC1 [Compound 96-2, (S)—N-(3-(4-aminopiperidin-1-yl)-1-(4′-chloro-[1,1′-biphenyl]-4-yl)-1,1-difluoro-3-oxopropan-2-yl)-4-(cyclohexylmethoxy) benzenesulfonamide trifluoroacetate]		30 to 100	30 to 100
	NC1CC2CCC(C1)N2C(=O)[C@@H](NC(=O)[C@@H](O)c1ccc2cc(OC3CCCC3)ccc2c1)C(F)(F)c1ccc(-c2ccc(Cl)cc2)cc1 (stereo partly drawn) [Compound 136-3, (2S)—N-((2R)-3-(3-amino-8-azabicyclo[3.2.1]octan-8-yl)-1-(4′-chloro-[1,1′-biphenyl]-4-yl)-1,1-difluoro-3-oxopropan-2-yl)-2-(6-(cyclopentyloxy)naphthalen-2-yl)-2-hydroxyacetamide trifluoroacetate]		1 to 10	1 to 10
1 to 10	NC1CCN(C(=O)[C@@H](NS(=O)(=O)c2ccc(OCC3CCCCC3)cc2)C(F)(F)c2ccc3c(c2)oc2cc(Cl)ccc23)CC1 [Compound 198-1, (R)-N-(3-(4-aminopiperidin-1-yl)-1-(7-chlorodibenzo[b,d]furan-3-yl)-1,1-difluoro-3-oxopropan-2-yl)-4-(cyclohexylmethoxy)benzenesulfonamide]			
30 to 100	NC1CCN(C(=O)[C@H](NS(=O)(=O)c2ccc(OCC3CCCCC3)cc2)C(F)(F)c2ccc3c(c2)oc2cc(Cl)ccc23)CC1 [Compound 198-2, (S)-N-(3-(4-aminopiperidin-1-yl)-1-(7-chlorodibenzo[b,d]furan-3-yl)-1,1-difluoro-3-oxopropan-2-yl)-4-(cyclohexylmethoxy)benzenesulfonamide]			
